Data set [1] can be described thus: Determination of pharmacokinetic parameters in rats after oral gavage. The settings on record: female rats; for AUC (area under concentration vs. time curve, 0–24 h): parent triazolone measured in plasma; for concentration at 2 h / concentration at 6 h: rat, plasma; for concentration at 2 h: read-out: Cp (2 h) plasma concentration; for concentration at 6 h: read-out: Cp (6 h) plasma concentration. It counts as in vivo, rat. The procedure: Intact female rats weighing 200-250 g were used. Groups of three or five rats were used for each dose level of an experimental compound and one rat was used as a vehicle control. Animals were allowed normal access to chow and water throughout the experiment. The test substance was formulated as an aqueous suspension containing hydroxypropyl cellulose, polysorbate 80 and benzyl alcohol adjusted to pH 3.5 with HCl or NaOH at a dose equivalent to (0.127 mmol) and was administered orally by gavage. A blood sample (0.3 mL) was collected from the treated rats at, 2, 4, 6 and 8 h from the orbital sinus and at 24 h by cardiac puncture. A sample of at least 0.3 mL of blood was withdrawn from the untreated animals 3 h after dosing. Potassium oxalate/NaF and lithium heparin were added to the samples which were stored on ice during sampling procedure. The samples were spun in a refrigerated centrifuge at […] as soon as possible and the plasma samples were stored −20° C. immediately after centrifugation and later transferred to a −80° C. freezer until analysis. Aliquots of plasma (0.05 mL) were mixed with 0.35 mL of an internal standard (and 0.05 mL of acetonitrile containing 0.1% formic acid. A set of calibration standards was prepared by mixing 0.05-mL aliquots of plasma from untreated rats with 0.05-mL aliquots of standard solution in acetonitrile containing 0.1% formic acid and 0.35-mL aliquots of the internal standard in acetonitrile containing 0.1% formic acid). Each plasma sample and calibration standard was vortexed thoroughly and then centrifuged (3000×g) at 4° C. for 20 min to precipitate the protein. Each supernatant from centrifugation was transferred into a separate injection vial for LC/MS/MS analysis.

Like-named read-outs stand apart in the source and are kept apart here.

As to `Cn1c(Cc2ccc(Cl)c(Oc3cc(C#N)cc(C(F)F)c3)c2F)nn(COC(=O)CCC(=O)O)c1=O` [Compound I-5, Succinic acid mono-{3-[4-chloro-3-(3-cyano-5-difluoromethyl-phenoxy)-2-fluoro-benzyl]-4-methyl-5-oxo-4,5-dihydro-[1,2,4]triazol-1-ylmethyl}ester], the melting point (commonly the temperature, or range, at which the solid turns liquid) fell in the range of 150.5 to 151.1 °C.
`Cn1c(Cc2ccc(Br)c(Oc3cc(C#N)cc(C(F)F)c3)c2F)nn(COC(=O)CCC(=O)O)c1=O` [Compound I-9, Succinic acid mono-{3-[4-bromo-3-(3-cyano-5-difluoromethyl-phenoxy)-2-fluoro-benzyl]-4-methyl-5-oxo-4,5-dihydro-[1,2,4]triazol-1-ylmethyl}ester] displayed a melting point of 156.7 to 158 °C.
Regarding `Cn1c(Cc2ccc(Cl)c(Oc3cc(C#N)cc(C(F)F)c3)c2F)n[nH]c1=O` [parent], the “AUC (area under concentration vs. time curve, 0–24 h)” value in data set [1] (dose 152 mg/kg (equimolar to I-5 200 mg/kg)) is 68800 ng·h/mL; in data set [1] (dose 530 mg/kg (equimolar to I-5 700 mg/kg)), 85400 ng·h/mL. The concentration at 2 h in data set [1] (dose 152 mg/kg) amounted to 2740 ng/mL; in data set [1] (dose 530 mg/kg), 3180 ng/mL. For the same compound, the values for the concentration at 6 h in data set [1] (dose 152 mg/kg) and in data set [1] (dose 530 mg/kg) were 5020 ng/mL and 5970 ng/mL, respectively.
For the compound `Cn1c(Cc2ccc(Cl)c(Oc3cc(Cl)cc(C#N)c3)c2F)nn(CO)c1=O` [Compound I-1], the melting point lay within 145.8 to 149.5 °C.
The same measure, in the same setting: then `Cn1c(Cc2ccc(Cl)c(Oc3cc(C#N)cc(C#N)c3)c2F)nn(CO)c1=O` [Compound I-3], with 158.9 to 162.2 °C.
The same measure, in the same setting: then `Cc1ccc(Cc2nn(COC(=O)CCC(=O)O)c(=O)n2C)c(F)c1Oc1cc(C#N)cc(C(F)F)c1` [Compound I-7, Succinic acid mono-{3-[3-(3-cyano-5-difluoromethyl-phenoxy)-2-fluoro-4-methyl-benzyl]-4-methyl-5-oxo-4,5-dihydro-[1,2,4]triazol-1-ylmethyl}ester], with 139.2 to 140.5 °C; and `CCc1ccc(Cc2nn(COC(=O)CCC(=O)O)c(=O)n2C)c(F)c1Oc1cc(C#N)cc(C(F)F)c1` [Compound I-11, succinic acid mono-{3-[3-(3-cyano-5-difluoromethyl-phenoxy)-4-ethyl-2-fluoro-benzyl]-4-methyl-5-oxo-4,5-dihydro-[1,2,4]triazol-1-ylmethyl}ester], with 152.2 to 153.5 °C.
Still for that read-out and setting: the same measure for `Cn1c(Cc2ccc(Cl)c(Oc3cc(Cl)cc(C#N)c3)c2F)nn(COC(=O)CCC(=O)O)c1=O` [Compound I-2, Succinic acid mono-{3-[4-chloro-3-(3-chloro-5-cyano-phenoxy)-2-fluoro-benzyl]-4-methyl-5-oxo-4,5-dihydro-[1,2,4]triazol-1-ylmethyl}ester]: 136.6 to 141.9 °C; for `Cn1c(Cc2ccc(Cl)c(Oc3cc(C#N)cc(C#N)c3)c2F)nn(COC(=O)CCC(=O)O)c1=O` [Compound I-4, Succinic acid mono-{3-[4-chloro-3-(3,5-dicyano-phenoxy)-2-fluoro-benzyl]-4-methyl-5-oxo-4,5-dihydro-[1,2,4]triazol-1-ylmethyl}ester]: 141.6 to 143.3 °C.

The values above are taken from US7666891B2, “Heterocyclic antiviral compounds” (Roche Palo Alto LLC, priority 2004, dated 2010).
